Source: patent US20260297070A1, “CYCLIC [COMPOUND LEFT OUT] WRN INHIBITORS” (Nimbus Wadjet, Inc., priority 2023, published 2026)

What follows are compounds tested against T1, human Werner helicase (WRN-BV08, Uniprot Q14191, amino acids 517-1235 with L1074F point mutation) (Homo sapiens, UniProt Q14191, L1074F) (assay: WRN (BV08) ADP-Glo Assay). Details: 0.15 nM WRN, 5 μM ATP, 0.1 nM DNA duplex, 15 min preincubation, 60 min at 25° C., pH 7.5, 1% DMSO; read-out: ADP-Glo_hWRN_IC50.
T1 construct: Uniprot Q14191, amino acids 517-1235 with L1074F point mutation; TEV-cleavable 8×His (C, cleaved yes); made in house; host or cells: Sf9 insect cells (baculovirus)
T1 sequence (Q14191 with tags, fused parts or gaps L1074F limits assumed): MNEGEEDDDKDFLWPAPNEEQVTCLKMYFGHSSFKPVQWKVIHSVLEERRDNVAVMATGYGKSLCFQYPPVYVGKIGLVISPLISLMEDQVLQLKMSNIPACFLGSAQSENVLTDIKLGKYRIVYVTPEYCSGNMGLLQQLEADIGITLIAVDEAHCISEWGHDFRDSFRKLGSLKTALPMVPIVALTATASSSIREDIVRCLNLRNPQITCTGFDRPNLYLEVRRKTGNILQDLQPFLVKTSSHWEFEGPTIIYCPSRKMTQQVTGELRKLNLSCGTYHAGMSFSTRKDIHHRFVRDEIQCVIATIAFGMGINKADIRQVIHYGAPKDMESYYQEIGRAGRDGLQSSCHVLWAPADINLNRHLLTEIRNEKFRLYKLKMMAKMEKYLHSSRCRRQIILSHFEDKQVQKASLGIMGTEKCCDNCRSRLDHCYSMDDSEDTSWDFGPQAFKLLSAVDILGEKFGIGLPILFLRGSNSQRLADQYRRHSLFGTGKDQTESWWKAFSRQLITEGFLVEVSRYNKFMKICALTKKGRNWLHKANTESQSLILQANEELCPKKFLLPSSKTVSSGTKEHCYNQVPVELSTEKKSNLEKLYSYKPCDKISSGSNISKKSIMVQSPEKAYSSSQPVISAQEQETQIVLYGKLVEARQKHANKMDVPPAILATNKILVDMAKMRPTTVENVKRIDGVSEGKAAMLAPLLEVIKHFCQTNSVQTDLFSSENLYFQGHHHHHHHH
Type: biochemical
How it was run: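 WRN 0.15 nM + cpd, 15 min 25 °C; add 5 μM ATP / 0.1 nM annealed DNA duplex; 60 min 25 °C; ADP-Glo stop, RLU. Buffer 20 mM Bicine pH 7.5, 1 mM MgCl2, 10 mM KCl, 1 mM TCEP. IC50, 4-parameter fit.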
`O=C(C(C(=O)N(Cc1ccncc1)C1C=CS(=O)(=O)C1)c1ccc(-c2ccc(F)cc2)cc1)N1CCCC1` (stereo not drawn) [I-125, N-(1,1-dioxo-2,3-dihydro-1lambda6-thiophen-3-yl)-2-{4′-fluoro-[1,1′-biphenyl]-4-yl}-3-oxo-N-[(pyridin-4-yl)methyl]-3-(pyrrolidin-1-yl)propanamide] gave an IC50 of 500 to 5000 nM.
`COc1cc(CN(C(=O)C(C)c2ccc(S(F)(F)(F)(F)F)cc2)C2C=CS(=O)(=O)C2)ccn1` (stereo not drawn) [I-126, N-(1,1-dioxo-2,3-dihydro-1lambda6-thiophen-3-yl)-N-[(2-methoxypyridin-4-yl)methyl]-2-[4-(pentafluoro-lambda6-sulfanyl)phenyl]propanamide] gave an IC50 of 500 to 5000 nM.
In the case of `CC(C)(O)c1cc(CN(C(=O)Cc2ccc(C(F)(F)F)cc2F)C2C=CS(=O)(=O)C2)ccn1` (stereo not drawn) [I-128, N-(1,1-dioxo-2,3-dihydro-1lambda6-thiophen-3-yl)-2-[2-fluoro-4-(trifluoromethyl)phenyl]-N-{[2-(2-hydroxypropan-2-yl)pyridin-4-yl]methyl}acetamide], the IC50 is reported as 500 to 5000 nM.
`COc1cc(CN(C(=O)Cc2ncc(-c3ccc(F)c(F)c3)cc2F)C2C=CS(=O)(=O)C2)ccn1` (stereo not drawn) [I-129, 2-[5-(3,4-difluorophenyl)-3-fluoropyridin-2-yl]-N-(1,1-dioxo-2,3-dihydro-1lambda6-thiophen-3-yl)-N-[(2-methoxypyridin-4-yl)methyl]acetamide] showed an IC50 of 500 to 5000 nM.
In the case of `CC(C)(O)c1cc(CN(C(=O)C2Cc3cc(C(F)(F)F)ccc3O2)C2C=CS(=O)(=O)C2)ccn1` (stereo not drawn) [I-131, N-(1,1-dioxo-2,3-dihydro-1lambda6-thiophen-3-yl)-N-{[2-(2-hydroxypropan-2-yl)pyridin-4-yl]methyl}-5-(trifluoromethyl)-2,3-dihydro-1-benzofuran-2-carboxamide], the IC50 is reported as 500 to 5000 nM.
`COc1cc(CN(C(=O)C2Cc3cc(-n4cccc4C)ccc32)C2C=CS(=O)(=O)C2)ccn1` (stereo not drawn) [I-132, N-(1,1-dioxo-2,3-dihydro-1lambda6-thiophen-3-yl)-N-[(2-methoxypyridin-4-yl)methyl]-3-(2-methyl-1H-pyrrol-1-yl)bicyclo[4.2.0]octa-1,3,5-triene-7-carboxamide] was tested, and the IC50 was 500 to 5000 nM.
`COc1cc(CN(C(=O)Cn2cc(-c3ccccc3F)cn2)C2C=CS(=O)(=O)C2)ccn1` (stereo not drawn) [I-134, N-(1,1-dioxo-2,3-dihydro-1lambda6-thiophen-3-yl)-2-[4-(2-fluorophenyl)-1H-pyrazol-1-yl]-N-[(2-methoxypyridin-4-yl)methyl]acetamide] gave an IC50 of 500 to 5000 nM.
For `CC(C)(O)c1cc(CN(C(=O)Cc2ccc(C(F)(F)F)cc2)C2C=CS(=O)(=O)C2)ccn1` (stereo not drawn) [I-135, N-(1,1-dioxo-2,3-dihydro-1lambda6-thiophen-3-yl)-N-{[2-(2-hydroxypropan-2-yl)pyridin-4-yl]methyl}-2-[4-(trifluoromethyl)phenyl]acetamide], the IC50 was 500 to 5000 nM.
With `COc1cc(CN(C(=O)Cc2ccc(-c3ccc(F)cc3)cc2Cl)C2C=CS(=O)(=O)C2)ccn1` (stereo not drawn) [I-136, 2-{3-chloro-4′-fluoro-[1,1′-biphenyl]-4-yl}-N-(1,1-dioxo-2,3-dihydro-1lambda6-thiophen-3-yl)-N-[(2-methoxypyridin-4-yl)methyl]acetamide] the IC50 was 500 to 5000 nM.
For `COc1cc(CN(C(=O)C(C)n2cc(-c3ccc(F)cc3)cn2)[C@@H]2C=CS(=O)(=O)C2)ccn1` (stereo partly drawn) [I-137, N-[(3R)-1,1-dioxo-2,3-dihydro-1lambda6-thiophen-3-yl]-2-[4-(4-fluorophenyl)-1H-pyrazol-1-yl]-N-[(2-methoxypyridin-4-yl)methyl]propanamide], the IC50 was 500 to 5000 nM.
In the case of `Cc1cccn1-c1ccc(CC(=O)N(Cc2ccc(C(=O)O)cc2)C2C=CS(=O)(=O)C2)c(F)c1` (stereo not drawn) [I-138, 4-{[N-(1,1-dioxo-2,3-dihydro-1lambda6-thiophen-3-yl)-2-[2-fluoro-4-(2-methyl-1H-pyrrol-1-yl)phenyl]acetamido]methyl}benzoic acid], the IC50 is reported as 500 to 5000 nM.
With `Cc1cccn1-c1ccc(CC(=O)N(Cc2ccnc(CC(C)(C)O)c2)C2C=CS(=O)(=O)C2)c(F)c1` (stereo not drawn) [I-139, N-(1,1-dioxo-2,3-dihydro-1lambda6-thiophen-3-yl)-2-[2-fluoro-4-(2-methyl-1H-pyrrol-1-yl)phenyl]-N-{[2-(2-hydroxy-2-methylpropyl)pyridin-4-yl]methyl}acetamide] the IC50 was 500 to 5000 nM.
For `O=C(C(C(=O)N(Cc1ccncc1)C1C=CS(=O)(=O)C1)c1ccc(-c2ccc(F)cc2)cc1)N1CCC1` (stereo not drawn) [I-140, 3-(azetidin-1-yl)-N-(1,1-dioxo-2,3-dihydro-1lambda6-thiophen-3-yl)-2-{4′-fluoro-[1,1′-biphenyl]-4-yl}-3-oxo-N-[(pyridin-4-yl)methyl]propanamide], the IC50 was 500 to 5000 nM.
For `CCOc1cc(CN(C(=O)Cc2ccc(-n3cccc3)cc2)C2C=CS(=O)(=O)C2)ccn1` (stereo not drawn) [I-141, N-(1,1-dioxo-2,3-dihydro-1lambda6-thiophen-3-yl)-N-[(2-ethoxypyridin-4-yl)methyl]-2-[4-(1H-pyrrol-1-yl)phenyl]acetamide], the IC50 was 500 to 5000 nM.
For `CNc1cc(CN(C(=O)Cc2ccc(-n3cccc3C)cc2F)C2C=CS(=O)(=O)C2)ccn1` (stereo not drawn) [I-142, N-(1,1-dioxo-2,3-dihydro-1lambda6-thiophen-3-yl)-2-[2-fluoro-4-(2-methyl-1H-pyrrol-1-yl)phenyl]-N-{[2-(methylamino)pyridin-4-yl]methyl}acetamide], the IC50 was 500 to 5000 nM.
In the case of `O=C(Cc1ccc(-c2ccc(F)c(F)c2)cc1)N(Cc1ccncc1)C1C=CS(=O)(=O)C1` (stereo not drawn) [I-143, 2-{3′,4′-difluoro-[1,1′-biphenyl]-4-yl}-N-(1,1-dioxo-2,3-dihydro-1lambda6-thiophen-3-yl)-N-[(pyridin-4-yl)methyl]acetamide], the IC50 is reported as 500 to 5000 nM.
In the case of `COC(C(=O)N(Cc1ccncc1)C1C=CS(=O)(=O)C1)c1ccc(-c2ccc(F)cc2)cc1` (stereo not drawn) [I-144, N-(1,1-dioxo-2,3-dihydro-1lambda6-thiophen-3-yl)-2-{4′-fluoro-[1,1′-biphenyl]-4-yl}-2-methoxy-N-[(pyridin-4-yl)methyl]acetamide], the IC50 is reported as 500 to 5000 nM.
For `O=C(Cc1ccc(-n2cccc2)cc1)N(Cc1nc(C(F)(F)F)cs1)C1C=CS(=O)(=O)C1` (stereo not drawn) [I-145, N-(1,1-dioxo-2,3-dihydro-1lambda6-thiophen-3-yl)-2-[4-(1H-pyrrol-1-yl)phenyl]-N-{[4-(trifluoromethyl)-1,3-thiazol-2-yl]methyl}acetamide], the IC50 was 500 to 5000 nM.
Work on `O=C(Cc1ccc(-n2cccc2)cc1)N(Cc1nc(-c2cccnc2)cs1)C1C=CS(=O)(=O)C1` (stereo not drawn) [I-146, N-(1,1-dioxo-2,3-dihydro-1lambda6-thiophen-3-yl)-N-{[4-(pyridin-3-yl)-1,3-thiazol-2-yl]methyl}-2-[4-(1H-pyrrol-1-yl)phenyl]acetamide] yielded an IC50 of 500 to 5000 nM.
Work on `O=C(Cn1ccc(-c2ccc(F)cc2)cc1=O)N(Cc1ccncc1)C1C=CS(=O)(=O)C1` (stereo not drawn) [I-147, N-(1,1-dioxido-2,3-dihydrothiophen-3-yl)-2-(4-(4-fluorophenyl)-2-oxopyridin-1(2H)-yl)-N-(pyridin-4-ylmethyl)acetamide] yielded an IC50 of 500 to 5000 nM.
For `O=C(Cc1ccc(-n2cccc2)cc1)N(Cc1nc(CC(F)(F)F)cs1)C1C=CS(=O)(=O)C1` (stereo not drawn) [I-148, N-(1,1-dioxo-2,3-dihydro-1lambda6-thiophen-3-yl)-2-[4-(1H-pyrrol-1-yl)phenyl]-N-{[4-(2,2,2-trifluoroethyl)-1,3-thiazol-2-yl]methyl}acetamide], the IC50 was 500 to 5000 nM.
